Assay results reported in patent US9915647B2 (priority 2011, dated 2018).

What was measured:
V79-G3 cells = type: cell-based, Chinese hamster
HEK293 cells = type: cell-based, human

Compound | increase in respiration over the basal level (V79-G3 cells) [%] | rotenone sensitivity of glutamate+malate-supported respiration (V79-G3 cells) | inhibition of ADP-stimulated respiration (HEK293 cells)
Nc1ncnc2c1ncn2[C@@H]1O[C@H](COP(=O)(O)OP(=O)(O)O)[C@@H](O)[C@H]1O [ADP, adenosine diphosphate] | ~20 |  | 
C=C(C)[C@H]1Cc2c(ccc3c2O[C@@H]2COc4cc(OC)c(OC)cc4[C@@H]2C3=O)O1 [rotenone] |  | sensitive to rotenone | dose-dependently
